Two molecules from patent US7527916B2, “Photopolymerizable composition” (Agfa Graphics, N.V., priority 2003, dated 2009) can be followed below.

This data set can be described thus: Solubility test in methyl ethyl ketone. The note with it: 1.5 g sensitiser in 100 g methyl ethyl ketone, stirred at room temperature (20° C.) for a maximum of 24 hours. The data set is classed as physicochemical. How it is done:
Solubility Test in Methyl Ethyl Ketone
1.5 g of the sensitiser is dissolved in 100g of methyl ethyl ketone and allowed to stir at room temperature (20° C.) for a maximum of 24 hours. If the sensitiser is completely dissolved in the methyl ethyl ketone, the sensitiser passes the solubility test and is considered as a preferred sensitiser according to the present invention.

In the case of `CCCCC(CC)COc1c(OC)cc(C=Cc2ccc(C=Cc3cc(OC)c(OCC(CC)CCCC)c(OC)c3)cc2)cc1OC` (centres unmarked) [(F), 1,4-distyryl-(3,5-trimethoxy, 4-(1-(2-ethyl)hexyl)oxy)benzene], the “Solubility test MEK (15 g/kg)” value is “OK (If the sensitiser is completely dissolved in the methyl ethyl ketone, the sensitiser passes the solubility test)”.
For `CCC(C)Oc1c(OC)cc(C=Cc2ccc(C=Cc3cc(OC)c(OC(C)CC)c(OC)c3)cc2)cc1OC` (centres unmarked) [(D), 1,4-distyryl-(3,5-trimethoxy, 4-(2-butyl)oxy)benzene], the “Solubility test MEK (15 g/kg)” value was “OK (If the sensitiser is completely dissolved in the methyl ethyl ketone, the sensitiser passes the solubility test)”.
